Experimental data: patent US7687609B2, “Galectin-glycosaminoglycan complex and method for controlling galectin activity” (National Institute of Advanced Industrial Science and …, priority 2006, dated 2010)
“Also recorded” adds a separate entry of the source.

Experiments:
Type in all cases: binding
Galectin-3 = target: T1, Galectin-3 (Homo sapiens, UniProt P17931); assay: FAC affinity test on galectin-immobilized column; settings: for V − V0 Value: pyridyl-aminated carbohydrate, galectin-3 immobilized 0.5 mg/ml, less than 5 μl = below interaction detection limit; for binding to galectin-3 (in words): text statement on the FAC results
T1 construct: made in house
T1 sequence (P17931 whole entry): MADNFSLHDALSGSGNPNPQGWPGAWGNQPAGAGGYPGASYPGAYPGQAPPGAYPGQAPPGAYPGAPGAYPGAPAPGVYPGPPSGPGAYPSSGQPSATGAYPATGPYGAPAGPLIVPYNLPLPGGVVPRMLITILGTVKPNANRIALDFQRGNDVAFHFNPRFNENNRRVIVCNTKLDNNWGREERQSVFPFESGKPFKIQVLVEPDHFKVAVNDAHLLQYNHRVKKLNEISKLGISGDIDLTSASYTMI
Method: (§1) Various galectin molecules-immobilized columns were prepared by the method described by Nakamura S, Yagi F, Totani K, Ito γ and Hirabayashi J in FEBS J., 272, 2784-2799 (2005), using NHS Sepharose (manufactured by Amersham Bioscience) as the carrier for immobilizing galectin molecules and in accordance with the instructions attached thereto (put in parentheses is immobilization concentration, mg galectin/ml carrier).
(§2) Each galectin molecule was immobilized onto the carrier at the following concentration; galectin-1 (0.8 mg/ml), galectin-3 (0.5 mg/ml), galectin-8N (3.6 mg/ml), galectin-8C (4.0 mg/ml), galectin-9N (3.6 mg/ml), galectin-9C (3.0 mg/ml). The carrier on which each galectin was immobilized was charged into a stainless steel miniature column (2 mm in inner diameter, 10 mm in length; manufactured by Shimadzu Corp.).
(§3) A high performance liquid chromatography (HPLC) system was equipped with a galectin molecule-immobilized column, and the test was carried out by the method described in Nakamura S, Yagi F, Totani K, Ito γ and Hirabayashi J in FEBS J., 272, 2784-2799 (2005).
(§4) As the negative control sample, pyridyl-aminated N-acetylglucosamine (PA-GlcNAc, manufactured by Takara Bio, pyridyl-aminated glycosaminoglycan-oligosaccharide sample control) or pyridyl-aminated pullulan (prepared by carrying out pyridylamination of standard pullulan manufactured by Shodex, pyridyl-aminated glycosaminoglycan polysaccharide sample control) was used, and a V−V0 value was calculated from their eluate volume (V0 value) measured by fluorescence detection and the eluate volume (V value) of the sample, namely pyridyl-aminated glycosaminoglycan carbohydrate, and this was used as the index of interaction strength (Protein, Nucleic Acid and Enzyme, 48(8), 1206-1212 (2003)).
(§5) V−V0 values of pyridyl-aminated glycosaminoglycans (HA, CH, DN, NAH, CSA, CSB, CSC, CSD, CSE, KS-I and KS-II) were calculated based on PA-GlcNAc, and V−V0 values of pyridyl-aminated glycosaminoglycan-oligosaccharides (G2K1, G1L1, G4L4, L2L2, L2L4, L4L4, SL2L4 and CH3 to CH12) based on pyridyl-aminated pullulan, respectively.
(§6) In this connection, when the calculated value of the V−V0 value was less than 5 μl, it was regarded as less than the interaction detection limit in this example.

Galectin-8N = target: T2, Galectin-8N (Homo sapiens, UniProt O00214); assay: FAC affinity test on galectin-immobilized column; settings: for V − V0 Value: pyridyl-aminated carbohydrate, galectin-8N immobilized 3.6 mg/ml, less than 5 μl = below interaction detection limit; for binding to galectin-8N (in words): text statement on the FAC results
T2 construct: N and C respectively represent N-terminal side carbohydrate-recognition domain and C-terminal side carbohydrate-recognition domain; made in house
T2 sequence (O00214 19-152 limits assumed): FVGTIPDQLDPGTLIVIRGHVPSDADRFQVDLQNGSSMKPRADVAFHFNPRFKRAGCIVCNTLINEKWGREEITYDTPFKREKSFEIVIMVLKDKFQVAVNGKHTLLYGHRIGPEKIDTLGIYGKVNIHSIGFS
Method: as §1, §2, §3, §4, §5, §6

Galectin-8C = target: T3, Galectin-8C (Homo sapiens, UniProt O00214); assay: FAC affinity test on galectin-immobilized column; settings: pyridyl-aminated carbohydrate; galectin-8C immobilized 4.0 mg/ml; less than 5 μl = below interaction detection limit
T3 construct: N and C respectively represent N-terminal side carbohydrate-recognition domain and C-terminal side carbohydrate-recognition domain; made in house
T3 sequence (O00214 187-317 limits assumed): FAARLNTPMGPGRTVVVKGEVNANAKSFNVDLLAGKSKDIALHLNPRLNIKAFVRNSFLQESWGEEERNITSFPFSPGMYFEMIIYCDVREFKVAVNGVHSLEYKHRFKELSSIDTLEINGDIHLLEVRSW
Method: as §1, §2, §3, §4, §5, §6

Galectin-1 = target: T4, Galectin-1 (Homo sapiens, UniProt P09382); assay: FAC affinity test on galectin-immobilized column; settings: for V − V0 Value: pyridyl-aminated carbohydrate, galectin-1 immobilized 0.8 mg/ml, less than 5 μl = below interaction detection limit
T4 construct: made in house
T4 sequence (P09382 whole entry): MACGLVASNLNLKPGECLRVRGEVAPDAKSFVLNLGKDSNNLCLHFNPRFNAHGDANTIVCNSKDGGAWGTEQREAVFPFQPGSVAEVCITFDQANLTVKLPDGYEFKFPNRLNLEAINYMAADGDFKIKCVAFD
Method: as §1, §2, §3, §4, §5, §6

Galectin-9C = target: T5, Galectin-9C (Homo sapiens, UniProt O00182); assay: FAC affinity test on galectin-immobilized column; settings: for V − V0 Value: pyridyl-aminated carbohydrate, galectin-9C immobilized 3.0 mg/ml, less than 5 μl = below interaction detection limit; for binding to galectin-9C (in words): text statement on the FAC results
T5 construct: N and C respectively represent N-terminal side carbohydrate-recognition domain and C-terminal side carbohydrate-recognition domain; made in house
T5 sequence (O00182 227-355 limits assumed): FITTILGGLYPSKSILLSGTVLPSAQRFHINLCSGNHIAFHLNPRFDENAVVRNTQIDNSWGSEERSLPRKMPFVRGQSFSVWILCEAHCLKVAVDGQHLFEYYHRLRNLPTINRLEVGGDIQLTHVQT
Method: as §1, §2, §3, §4, §5, §6

Galectin-9N = target: T6, Galectin-9N (Homo sapiens, UniProt O00182); assay: FAC affinity test on galectin-immobilized column; settings: for V − V0 Value: pyridyl-aminated carbohydrate, galectin-9N immobilized 3.6 mg/ml, less than 5 μl = below interaction detection limit; for binding to galectin-9N (in words): text statement on the FAC results
T6 construct: N and C respectively represent N-terminal side carbohydrate-recognition domain and C-terminal side carbohydrate-recognition domain; made in house
T6 sequence (O00182 17-148 limits assumed): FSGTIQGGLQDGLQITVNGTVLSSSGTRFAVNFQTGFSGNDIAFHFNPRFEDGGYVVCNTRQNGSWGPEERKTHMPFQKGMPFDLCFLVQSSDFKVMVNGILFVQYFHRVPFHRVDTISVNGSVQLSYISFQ
Method: as §1, §2, §3, §4, §5, §6

[1] = system: tested galectin molecules (galectin-1, 3, 8N, 8C, 9N and 9C); assay: FAC affinity test, statements on the whole panel of tested galectins; settings: Table 3, whole galectin panel
Source text: Using FAC, the present inventors have conducted a comprehensive analysis of the interactions between various galectin molecules (galectin-1, 3, 8N, 8C, 9N and 9C; N and C respectively represent N-terminal side carbohydrate-recognition domain and C-terminal side carbohydrate-recognition domain)-immobilized columns and various fluorescence-labeled glycosaminoglycan molecules. As a result, novel affinity was found by the combination of specific galectin molecules and glycosaminoglycan molecules to thereby accomplish the present invention.
as §3, §4, §6

Row | Molecule | V − V0 Value (Galectin-3) | V − V0 Value (Galectin-8N) | V − V0 Value (Galectin-8C) | V − V0 Value (Galectin-1) | V − V0 Value (Galectin-9C) | V − V0 Value (Galectin-9N) | binding to the tested galectin molecules (in words) [1] | binding to galectin-3 (in words) (Galectin-3) | binding to galectin-9C (in words) (Galectin-9C) | binding to galectin-9N (in words) (Galectin-9N) | binding to galectin-3 (in words) (Galectin-3; listed as chondroitin) | binding to galectin-9N (in words) (Galectin-9N; listed as chondroitin) | binding to galectin-8N (in words) (Galectin-8N) | binding to galectin-1 (in words) (Galectin-1; text statement on the FAC results)
1 | dermatan sulfate [CSB, reference compound] | <5.0 µL | <5.0 µL | <5.0 µL | <5.0 µL | <5.0 µL | <5.0 µL | did not bind |  |  |  |  |  |  | 
2 | chondroitin sulfate E [CSE, reference compound] | <5.0 µL | <5.0 µL | <5.0 µL | <5.0 µL | <5.0 µL | <5.0 µL | did not bind |  |  |  |  |  |  | 
3 | Hyaluronan [HA, reference compound] | <5.0 µL | <5.0 µL | <5.0 µL | <5.0 µL | <5.0 µL | <5.0 µL | did not bind |  |  |  |  |  |  | 
4 | cartilage type keratan sulfate [KS-II] | 10.1 ± 1.1 µL | <5.0 µL | <5.0 µL | <5.0 µL | 6.4 ± 1.0 µL | 10.4 ± 0.3 µL |  | weaker than their binding with KS-I; also recorded: showed binding affinity | weaker than their binding with KS-I; also recorded: showed binding affinity | weaker than their binding with KS-I; also recorded: showed binding affinity |  |  |  | 
5 | Chondroitin | 19.2 ± 2.2 µL | <5.0 µL | <5.0 µL | <5.0 µL | <5.0 µL | 171.4 ± 19.0 µL |  | bind |  | bind | length-dependent binding affinity | particularly strong binding affinity |  | 
6 | CC(=O)NC1C(O)OC(COS(=O)(=O)O)C(OC2OC(COS(=O)(=O)O)C(O)C(OC3OC(COS(=O)(=O)O)C(OC4OC(CO)C(O)C(OC5(C(=O)O)CC(O)C(NC(C)=O)C(C(O)C(O)CO)O5)C4O)C(O)C3NC(C)=O)C2O)C1O (stereo not drawn) [SL2L4, NeuAc α2-3 Gal β1-4 GlcNAc6S β1-3 Gal6S β1-4 GlcNAc6S] | 8.2 ± 0.2 µL | 26.5 ± 0.9 µL | <5.0 µL | <5.0 µL | <5.0 µL | <5.0 µL | bound to various galectin molecules | showed binding affinity |  |  |  |  | showed binding affinity | 
7 | N-acetylheparosan [NAH, reference compound] | <5.0 µL | <5.0 µL | <5.0 µL | <5.0 µL | <5.0 µL | <5.0 µL | did not bind |  |  |  |  |  |  | 
8 | chondroitin sulfate D [CSD, reference compound] | <5.0 µL | <5.0 µL | <5.0 µL | <5.0 µL | <5.0 µL | <5.0 µL | did not bind |  |  |  |  |  |  | 
9 | CC(=O)N[C@H]1[C@H](O[C@H]2[C@@H](O)[C@@H](CO)O[C@@H](O[C@H]3[C@H](O)[C@@H](NC(C)=O)C(O)O[C@@H]3CO)[C@@H]2O)O[C@H](CO)[C@@H](O)[C@@H]1O (stereo partly drawn) [G1L1, GlcNAc β1-3 Gal β1-4 GlcNAc] | 14.2 ± 1.3 µL | <5.0 µL | <5.0 µL | <5.0 µL | <5.0 µL | 13.6 ± 0.5 µL | bound to various galectin molecules | showed binding affinity |  | showed binding affinity |  |  |  | 
10 | CC(=O)N[C@H]1[C@H](O[C@H]2[C@H](O)[C@@H](O)[C@H](O[C@H]3[C@@H](O)[C@@H](CO)O[C@@H](O[C@H]4[C@H](O)[C@@H](O)[C@H](O[C@H]5[C@@H](O)[C@@H](CO)O[C@@H](O[C@H]6[C@H](O)[C@@H](O)[C@H](O[C@H]7[C@@H](O)[C@@H](CO)OC(O)[C@@H]7NC(C)=O)O[C@@H]6C(=O)O)[C@@H]5NC(C)=O)O[C@@H]4C(=O)O)[C@@H]3NC(C)=O)O[C@@H]2C(=O)O)O[C@H](CO)[C@H](O)[C@@H]1O[C@@H]1O[C@H](C(=O)O)[C@@H](O)[C@H](O)[C@H]1O (stereo partly drawn) [CH8, GlcA β1-3 (GalNAc β1-4 GlcA β1-3)3 GalNAc] | 7.8 ± 1.9 µL |  |  | <5.0 µL | <5.0 µL | 116.2 µL |  |  |  |  |  |  |  | 
11 | cornea type keratan sulfate [KS-I] | 21.7 ± 4.3 µL | <5.0 µL | <5.0 µL | 10.3 ± 4.5 µL | 12.2 ± 1.0 µL | 105.3 ± 22.6 µL |  | bound; also recorded: showed binding affinity | bound; also recorded: showed binding affinity | bound; also recorded: showed binding affinity |  |  | showed binding affinity | bound; also recorded: showed binding affinity
